The text below walks through data of US4522944A, “Carboxamido-derivatives of 5H-1,3,4-thiadiazolo[3,2-a]pyrimidines, compositions and use” (priority 1982, dated 1985).

Data set [1] can be described thus: approximate acute toxicity (LD50). To be noted: in vivo, po; mouse, per os, single administration of increasing doses, measured on the seventh day after treatment. The procedure: In view of their high therapeutic index, the compounds of the invention can be used safely in medicine. For example, the approximate acute toxicity (LD50) of the compounds 2-(3-pyridyl)-5-oxo-5H-1,3,4-thiadiazolo[3,2-a]pyrimidine-6-N-(2-pyridyl)-carboxamide and 5-oxo-5H-1,3,4-thiadiazolo[3,2-a]pyrimidine-6-N-(2-pyridyl)-carboxamide in the mouse, determined by single administration of increasing doses and measured on the seventh day after treatment, is higher than 800 mg/kg per os. Analogous toxicity data have been found for other compounds of the invention.

The test system of the next data set is mice. As to the kind of experiment: phenylquinone test in mice (analgesic activity). The data set is classed as in vivo. The following applies: 50 mg/kg, oral administration. The procedure:
The analgesic activity was assessed, for example, by means of the phenylquinone test in mice according to Siegmund: [Siegmund et al. Proc. Soc. Exper. Biol. Med. 95, 729 (1957)]. In this test the compound FCE 22914, for example, gives a 30% inhibition at 50 mg/kg after oral administration. It is known that certain thiadiazolo-pyrimidine derivatives are endowed with anti-allergic and anti-asthma activity, e.g. those described in Published Japan Patent Application No. J57 142989, but such compounds are devoid of any anti-inflammatory and/or analgesic activity.

The test system of data set [2] is edema formation in the hind paw. The data set can be described thus: Carrageenin induced oedema (edema formation in the hind paw of rats). It counts as in vivo. The following applies: rat, oral administration; approximate ED50; read-out: Anti-inflammatory activity, Carrageenin induced oedema, ED50. The source says: (§1) The hydroxy protecting groups, for instance, may be removed by mild reaction conditions, e.g. acid hydrolysis.
(A) the edema formation in the hind paw of rats in response to a subplantar injection of carrageenin, according to the method of C. A. Winter et al. (J. Pharmac. Exp. Therap. 1963, 141, 369) and P. Lence (Arch. Int. Pharmacodyn., 1962, 136, 237), and
(§2) The following Tables I and II show, for example, the approximate ED50 values of the anti-inflammatory activity in the above mentioned tests, in the rat after oral administration, for a compound of this invention: 2-(3-pyridyl)-5-oxo-5H-1,3,4-thiadiazolo[3,2-a]pyrimidine-6-N-(2-pyridyl)-carboxamide (internal code FCE 22914): […]

Data set [3] relates to Reversed Passive Arthus Reaction (RPAR) in rat paw. As to the kind of experiment: Reversed Passive Arthus Reaction (RPAR) in rat paw. It counts as in vivo. To be noted: oral administration, approximate ED50, read-out: Anti-inflammatory activity, RPAR reaction, ED50.
Text: as §1
(B) the Reversed Passive Arthus Reaction (RPAR) in rat paw, induced by the interaction of antigen and antibody resulting in the formation of precipitating immune complex, followed by fixation of complement and accumulation of polymorphonuclear leucocytes at a focal point (D. K. Gemmell, J. Cottney and A. J. Lewis, Agents and Actions 9/1 pag. 107, 1979).
as §2

Regarding `O=C(Nc1ccccn1)c1cnc2scnn2c1=O` [5-oxo-5H-1,3,4-thiadiazolo[3,2-a]pyrimidine-6-N-(2-pyridyl)-carboxamide], the LD50 at 168 h in data set [1] is over 800 mg/kg.

On to `O=C(Nc1ccccn1)c1cnc2sc(-c3cccnc3)nn2c1=O` [FCE 22914, 2-(3-pyridyl)-5-oxo-5H-1,3,4-thiadiazolo[3,2-a]pyrimidine-6-N-(2-pyridyl)-carboxamide], for which, in the data set with mice, the “inhibition in phenylquinone test (analgesic activity)” value was found to be 30%. Besides, the ED50 in data set [2] was found to be 45.9 mg/kg; in data set [3] it was 85.2 mg/kg. Besides, the LD50 at 168 h in data set [1] is over 800 mg/kg.
